Data on one compound can be found in patent US12168781B2, “Production method for T cells or NK cells, medium for culturing T cells or NK cells, method for culturing T cells or NK cells, method for maintaining undifferentiated state of undifferentiated T cells, and growth-accelerating agent for T cells or NK cells” (KIRIN HOLDINGS KABUSHIKI KAISHA, priority 2018, dated 2024).

Molecules are shown by their SMILES.

The subject of one test is T-iPS-T cells. In words: Long-term culturing of T-iPS-T cells obtained by differentiation induction using a feeder, trypan blue count. Conditions: 1 μM, FIG. 15(B). Format: cell-based, human. The method, then:
Further, evaluation of T-iPS-T cells obtained by differentiation induction using a feeder was also performed. The T-iPS-T cells (1,500 cells/well) obtained by differentiation induction in Example 1 were seeded, and stimulated with CD3/CD28 Dynabeads in the same manner as in Example 4, and berbamine (BBM) at 1 μM or MilliQ water that is a solvent for the compound as a control was added thereto, and the cells were cultured in the same culture medium as in Example 6. The cells were collected on day 14, day 28, and day 42, and the number of viable cells was counted by a trypan blue method, and the cells were restimulated and cultured. The cells were collected on day 56, and the number of viable cells was counted.

In test [1] the test system is regulatory T cells (Treg). As to the kind of experiment: Proliferation of regulatory T cells (number of FoxP3-positive cells). As to conditions: 1 μM, 6 days, CD3 T cells of 3 healthy donors, FIG. 17. In kind it is cell-based, human. The method, then: The usefulness of berbamine (BBM) in the proliferation of regulatory T cells (Treg) was verified. As a method therefor, CD3 T cells were purified from PBMCs (CTL, Inc.) derived from 3 healthy donor subjects in the same manner as in additional Example 6 and cultured for 6 days. After culturing for 6 days, the number of viable cells was counted by a trypan blue method and the ratio of CD25(+)FoxP3(+) cells was analyzed by FACS.
In the FACS, the cultured cells were sorted into facs tubes, washed with a staining solution (PBS containing 2% FBS), and then stained with CD3-APC (BioLegend, 300421), CD4-BV510 (BioLegend, 317444), CD8-Pacific Blue (BD 558207), and CD25-FITC (BioLegend, 302604).
After the cells were further washed, intracellular staining was performed using FoxP3/Transcription Factor Staining Buffer Set (eBioscience, 00-5523) and FoxP3-PE (eBioscience, 12-4776-41), and measurement was performed using a BD LSRFortessa cytometer (BD Bioscience).
The value obtained by multiplying the positive rate of FoxP3(+) cells in the CD4(+) cells analyzed by FlowJo 9 by the number of viable cells was defined as the number of FoxP3-positive cells.

For another test, the system named is CD8 T cells. As to the kind of experiment: Engraftment into mice of CD8 T cells cultured with the compound. In kind it is in vivo. Conditions: cells cultured 10 days with 1 μM, two weeks after transplantation into NSG mice, FIG. 19(B). The method, then: The effect of cells cultured with berbamine on engraftment into mice was examined. As a method therefor, CD8 T cells were purified from PBMCs (CTL, Inc.) derived from a healthy subject using CD8 T Cell Isolation Kit, human (Miltenyi, 130-096-495). The purified CD8 T cells (20,000 cells/well) were seeded, and berbamine (BBM) at 1 μM or MilliQ water that is a solvent for the compound as a control was added thereto, and the cells were cultured in the same culture medium by the same stimulation method as in additional Example 6, and the cells cultured for 10 days were used as cells to be transplanted. NSG male mice at 6 to 11 weeks of age (Charles River Japan) were used as experimental animals and transplantation was performed through the tail vein (approximately 4×10^6 cells). Two weeks after the transplantation, the spleen, peripheral blood and bone marrow were collected, and the CD8β and CD45 positive rates were analyzed by FACS. In the FACS, after the spleen and bone marrow were subjected to a homogenization treatment, and the peripheral blood was subjected to a hemolysis treatment, the resulting materials were transferred to a 96-well plate, followed by washing with a staining solution (PBS containing 2% FBS), and then staining with CD8β-PE-cy7 (eBioscience, 25-5273-42) and CD45-APC-Cy7 (BioLegend, 304014). After washing, the cells were resuspended in the staining solution containing PI. An analysis was performed using a BD LSR Fortessa cytometer (BD Bioscience). The positive rate of CD8β(+)CD45(+) cells in the PI-negative cell population analyzed by FlowJo 9 was measured. Note that in a statistical analysis, a Student's t-test was used (*: p<0.05).

Turning to `COc1cc2c3cc1Oc1c(OC)c(OC)cc4c1[C@@H](Cc1ccc(O)c(c1)Oc1ccc(cc1)C[C@@H]3N(C)CC2)N(C)CC4` [berbamine], the “period for which the cells could be cultured” value in the test on T-iPS-T cells (restimulated on day 14, 28, 42, MilliQ water control could not be cultured after day 28) was 56 days. In addition, the “proliferation of the cells in long-term culturing” value in the test on T-iPS-T cells (vs MilliQ water) is “enhancement of the proliferation of the cells”. Moreover, the “number of FoxP3-positive cells compared with MilliQ water” value in test [1] is “increase in the number of FoxP3-positive cells”. Besides, the “positive rate of CD8β(+)CD45(+) cells (engraftment) compared with cells cultured with MilliQ water” value with CD8 T cells (bone marrow), in the test on CD8 T cells (peripheral blood) and in the test on CD8 T cells (spleen) was “significant engraftment” in each case.
